Results: patent US20250312462A1, “PAK1 DEGRADERS AND METHODS OF USE THEREOF” (INSTITUTE FOR CANCER RESEARCH D/B/A THE RESEARCH INSTITUTE …, priority 2022, published 2025)

Assays:
ERK = ERK phosphorylation in OVCAR3 and MCF7 cells, immunoblot; assay type: cell-based; conditions: 10 nM, 24 hours
Method: FIG. 3A is a series of Western blots showing OVCAR3 and MCF7 cells that were treated for 24 hours with DMSO, 10 nM BJG-05-039, or NVS-PAK1-1 as indicated. MEK and ERK phosphorylation was assessed by immunoblot with the indicated phosphorylation-specific antibodies. FIG. 3B is a Western blot showing MCF7 cells that were stably transduced with a doxycycline-regulated shRNA against PAK1. shRNA expression was induced by the indicated amounts of doxycycline and immunoblots were performed using cell lysates 24 hours post doxycycline addition. FIG. 3C is a Western blot showing MCF7 cells that were treated with vehicle or […] doxycycline. Immunoblots were performed using cell lysates 24 hours post doxycycline addition.
Cells were washed once in PBS and lysed in RIPA buffer (50 mM Tris-HCl, 150 mM NaCl, 0.25% (w/v) sodium deoxycholate, 1% (w/v) NP-40, pH 7.5) containing protease inhibitor cocktail (Roche) and phosphatase inhibitor cocktail (Roche) for 30 minutes on ice. […]
In certain cell lines, PAK1 has well-characterized functions in regulating proliferative signaling. […] As a readout for anti-PAK activity, phosphorylation of MEK1 at S298 was assessed, a direct target site for Group A PAKs (Coles, et al. (2002) Oncogene 21:2236-2244; Slack-Davis, et al. (2003) J. Cell. Biol., 162:281-291), as well as phosphorylation of the downstream target of MEK, ERK. […]

CDC2L1 = CDC2L1 (Homo sapiens, UniProt P21127); experiment: KINOMEscan; conditions: read-out: Percent Control
Method: (§1) The kinase engagement assay (KINOMEscan®) was performed by DiscoverX assessing binding abilities toward a set of kinases.

DRAK2 = DRAK2 (Homo sapiens, UniProt O94768); experiment: KINOMEscan; conditions: read-out: Percent Control
Method: as §1

FLT3(K663Q) = FLT3(K663Q) (Homo sapiens, UniProt P36888, K663Q); experiment: KINOMEscan; conditions: read-out: Percent Control
Method: as §1

RET(V804M) = RET(V804M) (Homo sapiens, UniProt P07949, V804M); experiment: KINOMEscan; conditions: read-out: Percent Control
Method: as §1

MET(Y1235D) = MET(Y1235D) (Homo sapiens, UniProt P08581, Y1235D); experiment: KINOMEscan; conditions: read-out: Percent Control
Method: as §1

MRCKB = MRCKB (Homo sapiens, UniProt Q9Y5S2); experiment: KINOMEscan; conditions: read-out: Percent Control
Method: as §1

[1] = target: ABL1(F317L)-nonphosphorylated (Homo sapiens, UniProt P00519, F317L); experiment: KINOMEscan; conditions: read-out: Percent Control
Method: as §1

PIK4CB = PIK4CB (Homo sapiens, UniProt Q9UBF8); experiment: KINOMEscan; conditions: read-out: Percent Control
PIK4CB, sequence (Q9UBF8 whole entry): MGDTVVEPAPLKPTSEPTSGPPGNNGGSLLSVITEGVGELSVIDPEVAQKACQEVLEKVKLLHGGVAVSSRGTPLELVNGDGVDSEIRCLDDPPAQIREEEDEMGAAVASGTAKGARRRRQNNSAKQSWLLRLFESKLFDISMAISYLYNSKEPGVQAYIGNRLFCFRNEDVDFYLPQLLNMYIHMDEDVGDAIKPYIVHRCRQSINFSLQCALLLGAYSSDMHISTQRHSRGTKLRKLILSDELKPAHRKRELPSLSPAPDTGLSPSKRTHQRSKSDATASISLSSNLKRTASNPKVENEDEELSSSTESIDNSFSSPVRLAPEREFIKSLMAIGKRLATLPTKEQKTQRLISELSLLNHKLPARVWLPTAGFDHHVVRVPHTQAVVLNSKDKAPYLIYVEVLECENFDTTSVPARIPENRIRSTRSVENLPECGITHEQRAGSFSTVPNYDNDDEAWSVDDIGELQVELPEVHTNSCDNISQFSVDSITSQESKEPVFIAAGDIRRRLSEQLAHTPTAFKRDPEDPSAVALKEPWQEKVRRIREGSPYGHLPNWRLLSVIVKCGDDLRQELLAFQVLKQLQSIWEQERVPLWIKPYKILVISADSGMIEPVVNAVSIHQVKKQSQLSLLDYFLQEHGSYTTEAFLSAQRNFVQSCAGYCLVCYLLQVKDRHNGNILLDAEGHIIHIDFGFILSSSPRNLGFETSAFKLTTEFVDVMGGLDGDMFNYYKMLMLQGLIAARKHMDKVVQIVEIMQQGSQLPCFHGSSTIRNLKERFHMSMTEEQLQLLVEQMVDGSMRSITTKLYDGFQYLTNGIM
Method: as §1

EGFR(L747-T751del, Sins) = EGFR(L747-T751del, Sins) (Homo sapiens, UniProt P00533, DEL747-750/T751S); experiment: KINOMEscan; conditions: read-out: Percent Control
Method: as §1

MELK = MELK (Homo sapiens, UniProt Q14680); experiment: KINOMEscan; conditions: read-out: Percent Control
MELK, sequence (Q14680 whole entry): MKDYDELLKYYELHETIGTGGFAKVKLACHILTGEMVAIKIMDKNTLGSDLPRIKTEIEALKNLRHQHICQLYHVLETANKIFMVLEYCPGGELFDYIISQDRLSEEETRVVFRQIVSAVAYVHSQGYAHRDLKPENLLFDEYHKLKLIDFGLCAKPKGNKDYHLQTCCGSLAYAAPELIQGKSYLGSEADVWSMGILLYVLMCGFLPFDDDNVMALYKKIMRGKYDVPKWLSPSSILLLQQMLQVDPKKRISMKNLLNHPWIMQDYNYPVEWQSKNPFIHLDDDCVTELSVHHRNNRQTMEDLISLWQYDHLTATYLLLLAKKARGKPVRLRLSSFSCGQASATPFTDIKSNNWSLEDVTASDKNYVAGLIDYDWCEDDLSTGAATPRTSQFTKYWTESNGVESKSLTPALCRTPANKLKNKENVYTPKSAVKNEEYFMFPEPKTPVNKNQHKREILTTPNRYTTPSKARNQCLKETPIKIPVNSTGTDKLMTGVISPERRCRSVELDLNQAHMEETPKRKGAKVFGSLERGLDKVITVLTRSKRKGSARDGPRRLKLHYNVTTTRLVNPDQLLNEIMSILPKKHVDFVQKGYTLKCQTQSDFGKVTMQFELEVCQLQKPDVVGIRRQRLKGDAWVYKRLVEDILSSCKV
Method: as §1

ERK1 = ERK1 (Homo sapiens, UniProt P27361); experiment: KINOMEscan; conditions: read-out: Percent Control
Method: as §1

PDPK1 = PDPK1 (Homo sapiens, UniProt O15530); experiment: KINOMEscan; conditions: read-out: Percent Control
Method: as §1

[2] = target: RSK1(Kin.Dom.1-N-terminal) (Homo sapiens, UniProt Q15418); experiment: KINOMEscan; conditions: read-out: Percent Control
Method: as §1

CDK4-cyclinD1 = CDK4-cyclinD1 (Homo sapiens, UniProt P11802); experiment: KINOMEscan; conditions: read-out: Percent Control
Method: as §1

PIK3CA(E542K) = PIK3CA(E542K) (Homo sapiens, UniProt P42336, E542K); experiment: KINOMEscan; conditions: read-out: Percent Control
Method: as §1

EPHA6 = EPHA6 (Homo sapiens, UniProt Q9UF33); experiment: KINOMEscan; conditions: read-out: Percent Control
Method: as §1

TAOK1 = TAOK1 (Homo sapiens, UniProt Q7L7X3); experiment: KINOMEscan; conditions: read-out: Percent Control
TAOK1, sequence (Q7L7X3 whole entry): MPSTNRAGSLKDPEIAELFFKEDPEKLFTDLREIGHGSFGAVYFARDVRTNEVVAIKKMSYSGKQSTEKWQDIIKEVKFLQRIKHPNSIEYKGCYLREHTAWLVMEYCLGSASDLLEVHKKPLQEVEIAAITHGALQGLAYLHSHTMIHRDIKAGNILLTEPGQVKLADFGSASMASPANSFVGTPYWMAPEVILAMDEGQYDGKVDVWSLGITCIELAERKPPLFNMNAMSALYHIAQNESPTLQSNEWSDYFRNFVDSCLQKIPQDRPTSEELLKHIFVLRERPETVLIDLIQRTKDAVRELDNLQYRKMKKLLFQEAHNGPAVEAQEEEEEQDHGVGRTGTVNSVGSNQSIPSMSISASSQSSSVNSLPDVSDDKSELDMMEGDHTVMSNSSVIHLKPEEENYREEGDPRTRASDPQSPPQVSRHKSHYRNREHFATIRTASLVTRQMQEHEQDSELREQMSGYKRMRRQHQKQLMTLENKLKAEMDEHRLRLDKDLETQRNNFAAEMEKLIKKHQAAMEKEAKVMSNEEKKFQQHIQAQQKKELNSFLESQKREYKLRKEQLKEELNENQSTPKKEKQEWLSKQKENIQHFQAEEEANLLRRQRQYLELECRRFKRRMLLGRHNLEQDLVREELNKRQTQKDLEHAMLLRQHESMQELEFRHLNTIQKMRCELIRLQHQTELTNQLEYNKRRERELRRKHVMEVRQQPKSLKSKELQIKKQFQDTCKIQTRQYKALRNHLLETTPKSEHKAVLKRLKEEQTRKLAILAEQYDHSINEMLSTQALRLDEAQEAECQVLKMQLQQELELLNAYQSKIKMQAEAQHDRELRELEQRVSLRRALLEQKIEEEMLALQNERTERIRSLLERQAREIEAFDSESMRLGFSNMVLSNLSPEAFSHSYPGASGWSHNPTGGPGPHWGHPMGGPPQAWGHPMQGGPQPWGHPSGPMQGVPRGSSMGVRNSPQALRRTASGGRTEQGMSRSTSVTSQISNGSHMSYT
Method: as §1

SNARK = SNARK (Homo sapiens, UniProt Q9H093); experiment: KINOMEscan; conditions: read-out: Percent Control
Method: as §1

EIF2AK1 = EIF2AK1 (Homo sapiens, UniProt Q9BQI3); experiment: KINOMEscan; conditions: read-out: Percent Control
EIF2AK1, sequence (Q9BQI3 whole entry): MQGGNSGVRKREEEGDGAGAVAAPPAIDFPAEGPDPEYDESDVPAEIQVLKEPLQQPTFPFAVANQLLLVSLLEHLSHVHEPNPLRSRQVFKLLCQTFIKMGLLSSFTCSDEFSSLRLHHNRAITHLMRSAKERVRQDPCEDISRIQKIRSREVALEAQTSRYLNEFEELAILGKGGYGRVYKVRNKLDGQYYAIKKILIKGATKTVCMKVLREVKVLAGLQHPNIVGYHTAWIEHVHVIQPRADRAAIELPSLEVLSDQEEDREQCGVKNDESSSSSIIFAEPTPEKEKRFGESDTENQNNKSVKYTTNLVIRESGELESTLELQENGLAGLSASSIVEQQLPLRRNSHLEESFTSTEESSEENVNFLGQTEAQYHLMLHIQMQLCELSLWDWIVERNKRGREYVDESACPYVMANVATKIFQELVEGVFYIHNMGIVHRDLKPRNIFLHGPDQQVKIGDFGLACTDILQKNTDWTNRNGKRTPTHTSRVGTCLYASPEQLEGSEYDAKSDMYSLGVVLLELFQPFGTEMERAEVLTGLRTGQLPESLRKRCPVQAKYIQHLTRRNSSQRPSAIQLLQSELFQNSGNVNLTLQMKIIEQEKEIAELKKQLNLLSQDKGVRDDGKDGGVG
Method: as §1

CDKL1 = CDKL1 (Homo sapiens, UniProt Q00532); experiment: KINOMEscan; conditions: read-out: Percent Control
CDKL1, sequence (Q00532 whole entry): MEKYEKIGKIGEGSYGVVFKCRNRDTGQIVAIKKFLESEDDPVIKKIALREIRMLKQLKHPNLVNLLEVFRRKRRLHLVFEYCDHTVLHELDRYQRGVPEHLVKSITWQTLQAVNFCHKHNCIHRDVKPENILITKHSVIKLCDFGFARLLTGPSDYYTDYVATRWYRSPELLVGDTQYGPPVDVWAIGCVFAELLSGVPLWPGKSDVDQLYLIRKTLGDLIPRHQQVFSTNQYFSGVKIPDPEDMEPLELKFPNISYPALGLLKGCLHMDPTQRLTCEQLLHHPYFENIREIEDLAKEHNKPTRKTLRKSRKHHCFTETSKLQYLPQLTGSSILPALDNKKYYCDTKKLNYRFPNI
Method: as §1

ALK(C1156Y) = ALK(C1156Y) (Homo sapiens, UniProt Q9UM73, C1156Y); experiment: KINOMEscan; conditions: read-out: Percent Control
ALK(C1156Y), sequence (Q9UM73 19-1620 C1156Y): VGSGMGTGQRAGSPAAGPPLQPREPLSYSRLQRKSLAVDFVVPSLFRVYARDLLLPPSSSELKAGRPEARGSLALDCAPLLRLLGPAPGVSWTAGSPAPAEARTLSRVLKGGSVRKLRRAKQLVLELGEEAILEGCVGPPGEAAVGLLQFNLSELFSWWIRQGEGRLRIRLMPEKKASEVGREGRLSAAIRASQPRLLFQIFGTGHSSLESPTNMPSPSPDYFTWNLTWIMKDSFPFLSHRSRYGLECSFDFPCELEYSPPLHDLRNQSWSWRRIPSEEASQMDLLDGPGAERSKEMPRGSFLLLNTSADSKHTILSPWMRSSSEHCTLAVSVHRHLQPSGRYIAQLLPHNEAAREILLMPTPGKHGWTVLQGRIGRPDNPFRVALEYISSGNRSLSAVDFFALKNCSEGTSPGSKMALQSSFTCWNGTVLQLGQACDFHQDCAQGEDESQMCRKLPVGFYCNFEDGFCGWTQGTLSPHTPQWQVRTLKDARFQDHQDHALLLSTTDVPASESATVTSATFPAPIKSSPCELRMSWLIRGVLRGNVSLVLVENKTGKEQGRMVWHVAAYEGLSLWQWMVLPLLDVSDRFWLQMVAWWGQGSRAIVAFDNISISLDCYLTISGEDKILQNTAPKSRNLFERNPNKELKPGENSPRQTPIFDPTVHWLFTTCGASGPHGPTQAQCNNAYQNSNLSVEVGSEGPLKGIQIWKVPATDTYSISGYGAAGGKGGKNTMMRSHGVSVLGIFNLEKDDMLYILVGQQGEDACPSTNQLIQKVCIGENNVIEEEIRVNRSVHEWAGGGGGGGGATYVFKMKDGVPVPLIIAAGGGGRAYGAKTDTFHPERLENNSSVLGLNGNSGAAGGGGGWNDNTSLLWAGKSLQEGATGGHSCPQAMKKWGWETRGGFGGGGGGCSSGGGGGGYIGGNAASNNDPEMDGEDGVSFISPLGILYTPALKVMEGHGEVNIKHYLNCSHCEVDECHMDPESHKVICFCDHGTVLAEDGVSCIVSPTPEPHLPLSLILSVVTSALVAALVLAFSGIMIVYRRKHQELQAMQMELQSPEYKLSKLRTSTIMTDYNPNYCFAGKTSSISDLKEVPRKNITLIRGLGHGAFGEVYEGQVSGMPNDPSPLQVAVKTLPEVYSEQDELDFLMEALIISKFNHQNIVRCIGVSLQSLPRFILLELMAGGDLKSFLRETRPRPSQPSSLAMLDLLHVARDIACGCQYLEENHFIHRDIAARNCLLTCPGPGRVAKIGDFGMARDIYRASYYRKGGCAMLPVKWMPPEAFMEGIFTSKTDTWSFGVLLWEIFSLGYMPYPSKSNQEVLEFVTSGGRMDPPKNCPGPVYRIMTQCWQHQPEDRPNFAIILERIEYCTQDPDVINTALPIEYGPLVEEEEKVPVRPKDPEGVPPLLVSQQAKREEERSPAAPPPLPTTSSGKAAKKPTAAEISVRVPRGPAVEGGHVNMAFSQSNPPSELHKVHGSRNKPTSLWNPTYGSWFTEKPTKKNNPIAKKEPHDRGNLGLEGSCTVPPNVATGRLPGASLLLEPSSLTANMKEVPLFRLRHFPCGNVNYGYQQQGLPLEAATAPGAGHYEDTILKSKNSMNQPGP
Method: as §1

FLT3-autoinhibited = FLT3-autoinhibited (Homo sapiens, UniProt P36888); experiment: KINOMEscan; conditions: read-out: Percent Control
Method: as §1

MKNK1 = MKNK1 (Homo sapiens, UniProt Q9BUB5); experiment: KINOMEscan; conditions: read-out: Percent Control
Method: as §1

PRKCE = PRKCE (Homo sapiens, UniProt Q02156); experiment: KINOMEscan; conditions: read-out: Percent Control
Method: as §1

SMILES: O=C1CCC(N2C(=O)c3cccc(NCCCCCCCCNC(=O)N4CC[C@H](NC5=Nc6cc(F)ccc6N(CC(F)F)c6ccc(Cl)cc65)C4)c3C2=O)C(=O)N1 (stereo partly drawn) [BJG-05-039, (3S)-3-((2-Chloro-5-(2,2-difluoroethyl)-8-fluoro-5H-dibenzo[b,e][1,4]diazepin-11-yl)amino)-N-(8-((2-(2,6-dioxopiperidin-3-yl)-1,3-dioxoisoindolin-4-yl)amino)octyl)pyrrolidine-1-carboxamide]
- Phosphorylation of ERK (ERK): inhibiting phosphorylation of ERK
- remaining binding at 10 µM (CDC2L1): 53%
- remaining binding at 10 µM (DRAK2): 58%
- remaining binding at 10 µM (FLT3(K663Q)): 59%
- remaining binding at 10 µM (RET(V804M)): 59%
- remaining binding at 10 µM (MET(Y1235D)): 63%
- remaining binding at 10 µM (MRCKB): 67%
- remaining binding at 10 µM [1]: 77%
- remaining binding at 10 µM (PIK4CB): 78%
- remaining binding at 10 µM (EGFR(L747-T751del, Sins)): 80%
- remaining binding at 10 µM (MELK): 81%
- remaining binding at 10 µM (ERK1): 83%
- remaining binding at 10 µM (PDPK1): 86%
- remaining binding at 10 µM [2]: 87%
- remaining binding at 10 µM (CDK4-cyclinD1): 90%
- remaining binding at 10 µM (PIK3CA(E542K)): 91%
- remaining binding at 10 µM (EPHA6): 94%
- remaining binding at 10 µM (TAOK1): 95%
- remaining binding at 10 µM (SNARK): 96%
- remaining binding at 10 µM (EIF2AK1): 98%
- remaining binding at 10 µM (CDKL1): 99%
- remaining binding at 10 µM (ALK(C1156Y)): 100%
- remaining binding at 10 µM (FLT3-autoinhibited): 100%
- remaining binding at 10 µM (MKNK1): 100%
- remaining binding at 10 µM (PRKCE): 100%
